Entries after “also recorded” stand apart in the source; their conditions may differ. Where two headings read alike, the source gives them in different places.
Tests used:
[1] = test system: GNS cell lines G144, G166, and G179; format: cell-based; conditions: 10 μM, two days
fetal NS cells = assay: Validation with compounds from an independent supplier, fetal NS cells; format: cell-based, human; conditions: 10 μM, 2 days
Protocol: (§1) Here, selected compounds from an independent source were applied (2 μM for Tegaserod, 10 μM for all others) to G179 (left), HS 27 (middle) or fetal NS (right).
(§2) We carried out two fully independent screens using G144, G166, and G179, as well as a human fibroblast cell line (HS27). […] We chose Glioma NS cell lines to validate several of the drugs, from each class, using compounds obtained from an independent supplier (FIG. 18D).
(§3) For the drug screen we used the IncucyteHD system (Essen Instruments, USA), which enables simultaneously monitoring of six 96-well microplates. GNS cell lines were plated at 10-20% confluence on 96 well plates (Iwaki) coated with laminin (10 μg/ml for 3 hours). The NCC NIH Chemical Compounds library (http://www.nihclinicalcollection.com/) was added to the plates at a final concentration of 10 μM per compound per well (DMSO 0.1%). Images were captured before and after the addition of the library every half hour for 2.5 days in an automated manner using the Incucyte HD device (Essen Instruments, USA). Relative increase in cell number values were generated for every well using confluence readings obtained at each time-point relative to the starting confluence. For every cell line (G144, G166, G179, and HS27) two independent screens were run. HS27 is a human foreskin fibroblast line (American Type Culture Collection). […] Every well associated with a reduction in cell number within the 5* percentile in at least 3 independent screens was visually inspected.

fibroblast cells (HS27) = assay: Validation with compounds from an independent supplier, fibroblasts; format: cell-based, human; conditions: 10 μM, 2 days
Protocol: as §1, §2, §3

tumor lines (GNS cells) = assay: Validation with compounds from an independent supplier, tumor lines; format: cell-based, human; conditions: 10 μM, 2 days
Protocol: as §1, §2, §3

GNS cells [2] = assay: TUNEL and caspase staining of treated cells; format: cell-based, human; conditions: treated versus untreated cells
Text: FIG. 18E is a set of photomicrographs of cells either untreated or treated with indatraline and stained for TUNEL and caspase.

[3] = test system: human fibroblast cell line (HS27); assay: Live-cell imaging (IncucyteHD) chemical screen on fibroblast line; format: cell-based; conditions: 10 μM, two days
Protocol: as §2, §3

GNS cells [4] = assay: GNS cell expansion culture; format: cell-based, human
Protocol: GNS cell expansion was carried out as described previously for human foetal NS cells (Sun et al., (2008) Mol Cell Neurosci 38, 245-258). Tissue culture flasks were pre-treated with Laminin, 10 μg/ml in PBS, (Sigma), for at least 3 hrs at 37° C. […] GNS cells were routinely grown to confluence, dissociated using Accutase (Sigma), and then split 1:3 to 1:5. Media was replaced with fresh media every 3-5 days. For all routine analysis we typically worked with cells between passage 10 and 20. For freezing, we re-suspended cell pellets in 0.5 ml of 10% DMSO/Media and placed in a −80° C. freezer. For long-term storage, liquid nitrogen was used. […] Fetal NS cells CB541 and CB660 are described by Sun et al., 2008, supra), while hf240, hf286, and hf289 (used in the microarrays) were isolated using similar techniques.

G179 cells = assay: Astrocyte differentiation on BMP-4 exposure, G179; format: cell-based, human; conditions: BMP-4 10 ng/ml, 7 days
Protocol: (§4) To determine whether GNS cells could respond to inductive signals and generate astrocytes, we exposed cells to BMP-4 or serum. […] This response is similar to that of human fetal NS cells (Sun et al., (2008) Mol Cell Neurosci 38, 245-258). Similar results were seen using serum treatment. […] Thus, while GNS cells retain a capacity to differentiate, the efficiency and lineage choice vary dramatically between each line.
(§5) All differentiation was carried out on laminin-coated plastic, either in 4-well plates (˜0.5-1×10^5 cells/well) (Nunc), or for time-lapse movies using 24-well Imagelock microplates (Essen Instruments). For oligodendrocytes and neuronal differentiation we used the same basal media but lacking EGF or FGF-2 (i.e., growth factor withdrawal). For astrocyte differentiation, we supplemented basal media with either BMP at 10 ng/ml (R and D systems), or 1% serum (Sigma). In each case, cells were washed twice with PBS or minimal media before adding the final differentiation media. Samples were processed for immunocytochemistry, typically 7-10 days later.
(§6) Cells w ere fixed in 4% PFA for 10 min and then washed with PBS+0.1% TritonX-100 (PBST). Blocking was carried out using 1% goat serum for 30 mins. […] Images were acquired using a Leica DMI400B inverted fluorescence microscope linked to a DFC340FX camera.

G166 cells = assay: Astrocyte differentiation on BMP-4 exposure, G166; format: cell-based, human; conditions: BMP-4 treatment
Protocol: as §4, §5, §6

G144 cells = assay: Astrocyte differentiation on BMP-4 exposure, G144; format: cell-based, human; conditions: BMP-4 10 ng/ml, 7 days
Protocol: as §4, §5, §6

Molecule: c1ccc2c(c1)Nc1ccccc1S2 [10H-phenothiazine]
- killing of / effect on all GNS cell lines [1]: killed all GNS cell lines

Molecule: CN1CCN(c2nc3cc(C(F)(F)F)ccc3n3cccc23)CC1.O=C(O)/C=C\C(=O)O.O=C(O)/C=C\C(=O)O [CGS 12066B]
- killing of / effect on all GNS cell lines [1]: killed all GNS cell lines

Molecule: C[C@@H]1CN(CCCn2c3ccccc3c3ccccc32)C[C@H](C)N1 [Rimcazole]
- cell death in fetal NS cells (fetal NS cells): cell death
- effect on fibroblast cells (fibroblast cells (HS27)): less striking or no effect
- killing of / effect on all GNS cell lines [1]: killed all GNS cell lines
- cell death in tumor lines (tumor lines (GNS cells)): cell death

Molecule: CN1CCN(CCCN2c3ccccc3Sc3ccc(C(F)(F)F)cc32)CC1 [Trifluoperazine]
- killing of / effect on all GNS cell lines [1]: killed all GNS cell lines

Molecule: CNC1CC(c2ccc(Cl)c(Cl)c2)c2ccccc21 (stereo not drawn) [indatraline]
- cell death in fetal NS cells (fetal NS cells): cell death
- effect on fibroblast cells (fibroblast cells (HS27)): less striking or no effect
- killing of / effect on all GNS cell lines [1]: killed all GNS cell lines
- killing of / effect on all GNS cell lines ([1]; listed as Indatraline): affected all GNS cells
- apoptotic cell death (TUNEL and caspase staining) (GNS cells [2]): dying by an apoptotic pathway; also recorded: increase in TUNEL and caspase staining
- effect on fibroblasts [3]: no effect
- cell death in tumor lines (tumor lines (GNS cells)): cell death

Molecule: Fc1ccc([C@@H]2CCNC[C@H]2COc2ccc3c(c2)OCO3)cc1 [paroxetine]
- killing of / effect on all GNS cell lines [1]: killed all GNS cell lines
- killing of / effect on all GNS cell lines ([1]; listed as Paroxetine): affected all GNS cells
- effect on fibroblasts [3]: no effect

Molecule: CN[C@H]1CC[C@@H](c2ccc(Cl)c(Cl)c2)c2ccccc21 [sertraline]
- cell death in fetal NS cells (fetal NS cells): cell death
- effect on fibroblast cells (fibroblast cells (HS27)): less striking or no effect
- cell death in tumor lines (tumor lines (GNS cells)): cell death

Molecule: [H]/N=C(/NCCCCC)N/N=C/c1c[nH]c2ccc(OC)cc12 [tegaserod]
- killing of / effect on all GNS cell lines [1]: killed all GNS cell lines

Molecule: LIF: the cytokine LIF (leukemia inhibitory factor)
- effect on the cells in expansion culture (GNS cells [4]): no apparent effect

B1: BMP-4: inductive signal added to basal media for astrocyte differentiation (R and D systems) (protein, UniProt P12644 293-408, looked up)
Bone morphogenetic protein 4: SPKHHSQRARKKNKNCRRHSLYVDFSDVGWNDWIVAPPGYQAFYCHGDCPFPLADHLNSTNHAIVQTLVNSVNSSIPKACCVPTELSAISMLYLDEYDKVVLKNYQEMVVEGCGCR
- differentiation into GFAP+ cells (G179 cells): majority of cells express high levels of GFAP; also recorded: efficiently differentiate into GFAP^+ cells
- differentiation into GFAP+ cells (G179 cells; listed as BMP): expressed high levels of GFAP
- differentiation into GFAP+ cells (G166 cells): did differentiate
- differentiation into GFAP+ cells (G166 cells; listed as BMP): could only be observed at low frequency
- differentiation into GFAP+ cells (G144 cells): majority of cells express high levels of GFAP; also recorded: efficiently differentiate into GFAP^+ cells
